Consider one compound from patent publication US20100076092A1, “LIPID-DERIVED NANOPARTICLES FOR BRAIN-TARGETED DRUG DELIVERY” (priority 2006, published 2010).

A short description of the data set: Biodistribution / brain delivery of drug in mice after intravenous drug-loaded nanoparticles. It is filed as in vivo. The conditions noted are these: mouse, BMS, 12 mg/kg intravenously through tail vein in mice, HPLC, mean±SD (n=6), read-out: drug levels in the brain. As for the experimental part:
The brain delivery of BMS was assessed one hour following intravenous administration of brain lipid-coated nanoparticles in mice (FIG. 1). BMS in nanoparticles with or without brain-derived lipids or equivalent amount in solution (12 mg/kg) was injected intravenously in mice through tail vein, and drug levels in different tissues at the end of 1 hr was analyzed by HPLC. Data as mean±SD (n=6). * p<0.05. […] Data as mean±SD (n=4 and 3). * p<0.05.

SMILES strings stand for the structures.

For the compound `Cc1noc(NS(=O)(=O)c2cccc3c(N(C)C)cccc23)c1C` [solution control, BMS 182874], the concentration at 1 h amounted to 2360 ± 580 ng/g.
